Assay results reported in ChEMBL document CHEMBL1201862, “PubChem BioAssay data set” (2004).
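Protocol summary: plate cells (96-well), add compound at 5 concentrations, incubate 48 h, interpolate endpoints linearly. Here, GI50 denotes the concentration required for 50% inhibition of growth.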 Activity calls are given as the source filed them. Cut-off read from the data, not from the text of the source: active = GI50 up to about 1.1 µM and inactive = higher.

Assays:
Test in all cases: inhibition of tumour cell growth, NCI panel, 48 h
SF-295 = system: SF-295
SK-OV-3 = system: SK-OV-3
OVCAR-4 = system: OVCAR-4
M19-MEL = system: M19-MEL
COLO 205 = system: COLO 205
EKVX = system: EKVX
HOP-62 = system: HOP-62
RXF 631 = system: RXF 631
A498 = system: A498
NCI-H23 = system: NCI-H23
RPMI-8226 = system: RPMI-8226
HT-29 = system: HT-29
K562 = system: K562
NCI-H522 = system: NCI-H522
HL-60 = system: HL-60
DU-145 = system: DU-145
SNB-19 = system: SNB-19
HCC 2998 = system: HCC 2998
PC-3 = system: PC-3
A549 = system: A549
SK-MEL-2 = system: SK-MEL-2
MDA-MB-435 = system: MDA-MB-435
OVCAR-8 = system: OVCAR-8
Malme-3M = system: Malme-3M
KM12 = system: KM12
MOLT-4 = system: MOLT-4
OVCAR-3 = system: OVCAR-3
SF-539 = system: SF-539
Hs-578T = system: Hs-578T
HOP-18 = system: HOP-18
CAKI-1 = system: CAKI-1
UO-31 = system: UO-31
BT-549 = system: BT-549
LOX IMVI = system: LOX IMVI
786-0 = system: 786-0
OVCAR-5 = system: OVCAR-5
DMS-273 = system: DMS-273
SN12C = system: SN12C
HOP-92 = system: HOP-92
NCI-H460 = system: NCI-H460
NCI-H226 = system: NCI-H226
SF-268 = system: SF-268
CCRF-CEM = system: CCRF-CEM
HCT-15 = system: HCT-15
M14 = system: M14
NCI/ADR-RES = system: NCI/ADR-RES
UACC-62 = system: UACC-62
SR = system: SR
KM-20L2 = system: KM-20L2
MDA-N = system: MDA-N
UACC-257 = system: UACC-257
TK-10 = system: TK-10
U-251 = system: U-251
LXFL 529 = system: LXFL 529
SK-MEL-28 = system: SK-MEL-28
MDA-MB-231 = system: MDA-MB-231
T47D = system: T47D
HCT-116 = system: HCT-116
MCF7 = system: MCF7
SW-620 = system: SW-620
SNB-75 = system: SNB-75
SK-MEL-5 = system: SK-MEL-5
ACHN = system: ACHN
DLD-1 = system: DLD-1
RXF 393 = system: RXF 393
DMS-114 = system: DMS-114
XF498 = system: XF498
IGROV-1 = system: IGROV-1
SNB-78 = system: SNB-78

COc1ccccc1/C=C1\CCC(CN2CCOCC2)C1=O (centres undefined) was tested, and the GI50 (SF-295) was 19.2 µM (inactive), the GI50 (SK-OV-3) was > 43.7 µM (inactive) and the GI50 (OVCAR-4) was 16.8 µM (inactive). For the same molecule, the GI50 (M19-MEL) was 6.7 µM (inactive), the GI50 (COLO 205) was 4.47 µM (inactive) and the GI50 (EKVX) was 11.2 µM (inactive). The GI50 (HOP-62) was 25.5 µM (inactive), the GI50 (RXF 631) was 11.9 µM (inactive) and the GI50 (A498) was 18.2 µM (inactive). For the same molecule, the GI50 (NCI-H23) was 20.3 µM (inactive), the GI50 (RPMI-8226) was 1.32 µM (inactive) and the GI50 (HT-29) was 11 µM (inactive). For the same molecule, the GI50 (K562) was 2.81 µM (inactive), the GI50 (NCI-H522) was 1.77 µM (inactive) and the GI50 (HL-60) was 2.12 µM (inactive). The GI50 (DU-145) was 17.3 µM (inactive), the GI50 (SNB-19) was 9.55 µM (inactive) and the GI50 (HCC 2998) was 14.9 µM (inactive). For the same molecule, the GI50 (PC-3) was 15.2 µM (inactive), the GI50 (A549) was 21.9 µM (inactive) and the GI50 (SK-MEL-2) was 15.7 µM (inactive). The GI50 (MDA-MB-435) was 7.13 µM (inactive), the GI50 (OVCAR-8) was 5.43 µM (inactive) and the GI50 (Malme-3M) was 10.2 µM (inactive). The GI50 (KM12) was 3.71 µM (inactive), the GI50 (MOLT-4) was 2.32 µM (inactive) and the GI50 (OVCAR-3) was 5.57 µM (inactive). The GI50 (SF-539) was 15.2 µM (inactive), the GI50 (Hs-578T) was 10.8 µM (inactive) and the GI50 (HOP-18) was 17.9 µM (inactive). The GI50 (CAKI-1) was 17.3 µM (inactive), the GI50 (UO-31) was 16.6 µM (inactive) and the GI50 (BT-549) was 12.6 µM (inactive). For the same molecule, the GI50 (LOX IMVI) was 6.52 µM (inactive), the GI50 (786-0) was 3.02 µM (inactive) and the GI50 (OVCAR-5) was 18.4 µM (inactive). For the same molecule, the GI50 (DMS-273) was 13.6 µM (inactive), the GI50 (SN12C) was 7.5 µM (inactive) and the GI50 (HOP-92) was 18.4 µM (inactive). For the same molecule, the GI50 (NCI-H460) was 18.2 µM (inactive), the GI50 (NCI-H226) was 16.9 µM (inactive) and the GI50 (SF-268) was 16 µM (inactive). For the same molecule, the GI50 (CCRF-CEM) was 2.56 µM (inactive), the GI50 (HCT-15) was 4.24 µM and the GI50 (M14) was 6.15 µM (inactive). For the same molecule, the GI50 (NCI/ADR-RES) was 8.95 µM (inactive), the GI50 (UACC-62) was 16.4 µM (inactive) and the GI50 (SR) was 1.74 µM (inactive). The GI50 (KM-20L2) was 16.6 µM (inactive), the GI50 (MDA-N) was 13.8 µM (inactive) and the GI50 (UACC-257) was 11.6 µM (inactive). The GI50 (TK-10) was 3.49 µM (inactive), the GI50 (U-251) was 18.7 µM (inactive) and the GI50 (LXFL 529) was 3.28 µM (inactive). For the same molecule, the GI50 (SK-MEL-28) was 15.5 µM (inactive), the GI50 (MDA-MB-231) was 3.68 µM (inactive) and the GI50 (T47D) was 1.84 µM (inactive). The GI50 (HCT-116) was 6.92 µM (inactive), the GI50 (MCF7) was 5.14 µM (inactive) and the GI50 (SW-620) was 4.16 µM (inactive). The GI50 (SNB-75) was 20.2 µM (inactive), the GI50 (SK-MEL-5) was 15 µM (inactive) and the GI50 (ACHN) was 16.1 µM (inactive). The GI50 (DLD-1) was 3.84 µM (inactive), the GI50 (RXF 393) was 16.8 µM (inactive) and the GI50 (DMS-114) was 16 µM (inactive). The GI50 (XF498) was 16.4 µM (inactive), the GI50 (IGROV-1) was 12.5 µM (inactive) and the GI50 (SNB-78) was 20 µM (inactive).
